≈ marks a conversion by molar mass, not a printed value. Like-named read-outs stand apart in the source and are kept apart here.
Tests used:
Puccinia triticina = test: Foliar protection test for wheat leaf rust control; assay type: in vivo; details: foliar application to wheat (Triticum aestivum cv. Winterhawk), evaluated 10 days later
[1] = tested on: Blumeria graminis f. sp. hordei; test: Foliar protection test for barley powdery mildew control; assay type: in vivo; details: foliar spray on Hordeum vulgare cv. Perry, inoculated 24 hours after treatment, evaluated 7 days later
Method in brief: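 Protective foliar test: compound atomized onto both leaf surfaces of 6-day-old Hordeum vulgare cv. Perry, followed after 24 h by spore-cloud inoculation from colonized untreated plants. Disease rated on leaves 7 days on, plants held at 20 to 22° C and 70% RH.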

Rhizoctonia solani (Rs) = test: In vitro pathogen growth inhibition assay, Rs (mycelial plugs); assay type: cell-based; details: Rhizoctonia solani, 48 h, mycelial plugs
Method in brief: (§1)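 Value reported is the compound concentration reaching ≥90% growth inhibition, from OD readings at 24 and 48 h after blank subtraction, confirmed visually. Inoculum was spores diluted in 17% V8 medium, except Rs, using 1.5 mm mycelial plugs in ¼ PDB; actual compound concentration corrected via OD600.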

Fusarium graminearum [2] = assay type: in vivo; details: spray on flowering Triticum aestivum cv. Samson, inoculated 24 hours after treatment, evaluated 14 days later
Phakopsora pachyrhizi = test: Foliar protection test for Asian soybean rust control; assay type: in vivo; details: foliar application to soybean (Glycine max AG4832), percent disease area evaluated 14 days later
Botrtyis cinerea (Bc) = test: In vitro pathogen growth inhibition assay, Bc; assay type: cell-based; details: 48 h
Method in brief: as §1

[3] = tested on: Mycosphaerella graminicola (synthetic Septoria tritici); test: Foliar protection test for wheat septoria leaf blotch control; assay type: in vivo; details: foliar spray on Triticum aestivum cv. WinterHawk, inoculated 1 hour after treatment, evaluated 16 days later
Diplodia maydis (Dm) = test: In vitro pathogen growth inhibition assay, Dm; assay type: cell-based; details: Stenocarpella maydis, 48 h
Method in brief: as §1

[4] = tested on: Phytophthora capsici (Pc); test: In vitro pathogen growth inhibition assay, Pc; assay type: cell-based; details: 48 h
Method in brief: as §1

[5] = tested on: Fusarium virguliforme (Fv); test: In vitro pathogen growth inhibition assay, Fv; assay type: cell-based
Method in brief: as §1

[6] = tested on: Blumeria graminis f. sp. hordei; test: Early foliar disease control via seed treatment (barley powdery mildew); assay type: in vivo; details: seed treatment rate 0.025 mg/seed; barley inoculated 7 days after planting, evaluated 7 days later
Experimental: Barley seeds (Hordeum vulgare cv. Perry or Conlon) were treated with a test compound dissolved in pure acetone, in which the acetone solution (1 mL) was used per 50 seeds in glass jars in a fume hood. The seeds were swirled in the glass jars by hand until no obvious presence of acetone remained and the seeds were mostly dry. Plants were grown for 7 days in 2-inch square pots containing Metromix 200 medium amended with fertilizer. […] After inoculation with the pathogen of Blumeria graminis f. sp. hordei, plants were kept at conditions of 20 to 22° C., 200 uM of light, 70% humidity to facilitate infection and disease development. At 7 days after planting (1st true leaf fully expanded), the plants were moved to the cooler chamber and inoculated by shaking well-colonized, untreated stock plants above the treated material. […] Efficacy was evaluated in 7 days later by examining leaves for colonization and growth of powdery mildew. Each side of each leaf was assigned a severity rating of 0, 1, 5, 10, 25, 50, 75, or 100 percent diseased area. Table 14 lists the results of barley powdery mildew control upon seed treatment with test compounds.

Fusarium graminearum [7] = assay type: in vivo; details: corn from treated seeds, 0.025 mg/seed, F. graminearum inoculated
[8] = tested on: Collectotrichum graminicola (Cg); test: In vitro pathogen growth inhibition assay, Cg; assay type: cell-based; details: 48 h
Method in brief: as §1

[9] = tested on: Fusarium moniliforme (Fm); test: In vitro pathogen growth inhibition assay, Fm; assay type: cell-based; details: Fusarium verticillioides
Method in brief: as §1

Sphaerotheca fuliginea = test: Foliar protection for cucumber powdery mildew control; assay type: in vivo; details: foliar spray on Cucumis sativus cv. Straight Eight, inoculated 24 hours after treatment, evaluated 7 days later
Method in brief: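 Protective foliar spray on 10-day-old Straight Eight cucumbers, with S. fuliginea spores dusted from infected stock plants 24 h after treatment. Disease developed at 23–27 °C, 60% RH and a 16 h photoperiod. Leaves were rated for mildew growth after 7 days; test rates 10 ppm or below.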

Septoria tritici (St) = test: In vitro pathogen growth inhibition assay, St; assay type: cell-based; details: Zymoseptoria tritici, 48 h
Method in brief: as §1

[10] = ≥90% growth inhibition, 48 hours, vs 2% DMSO control, read-out: Compound Concentration (ppm) sufficient for ≥90% inhibition of Rs
[11] = ≥90% growth inhibition, 48 hours, vs 2% DMSO control, read-out: Compound Concentration (ppm) sufficient for ≥90% inhibition of Bc
[12] = ≥90% growth inhibition, 48 hours, vs 2% DMSO control, read-out: Compound Concentration (ppm) sufficient for ≥90% inhibition of Dm
[13] = ≥90% growth inhibition, 48 hours, vs 2% DMSO control, read-out: Compound Concentration (ppm) sufficient for ≥90% inhibition of Pc
[14] = ≥90% growth inhibition, 48 hours, vs 2% DMSO control, read-out: Compound Concentration (ppm) sufficient for ≥90% inhibition of Fv
[15] = ≥90% growth inhibition, 48 hours, vs 2% DMSO control, read-out: Compound Concentration (ppm) sufficient for ≥90% inhibition of Cg
[16] = ≥90% growth inhibition, 48 hours, vs 2% DMSO control, read-out: Compound Concentration (ppm) sufficient for ≥90% inhibition of Fm
[17] = ≥90% growth inhibition, 48 hours, vs 2% DMSO control, read-out: Compound Concentration (ppm) sufficient for ≥90% inhibition of St

SMILES	Wheat Leaf Rust Control at a compound concentration of 10 ppm or lower (Puccinia triticina)	Barley Powdery Mildew Control at a compound concentration of 10 ppm or lower [1]	Wheat Fusarium Head Blight Control at a compound concentration of 25 ppm or lower (Fusarium graminearum [2])	Asian Soybean Rust Control at a compound concentration of 25 ppm or lower (Phakopsora pachyrhizi)	Septoria Leaf Blotch Control at a compound concentration of 25 ppm or lower [3]	Cucumber Powdery Mildew Control at a compound concentration of 10 ppm or lower (Sphaerotheca fuliginea)	IC90 (Rhizoctonia solani (Rs); [10]) [µg/mL]	IC90 (Botrtyis cinerea (Bc); [11]) [µg/mL]	IC90 (Diplodia maydis (Dm); [12]) [µg/mL]	IC90 [4, 13] [µg/mL]	IC90 [5, 14] [µg/mL]	Plant Height (Fusarium graminearum [7]; Table 13) [cm]	IC90 [8, 15] [µg/mL]	IC90 [9, 16] [µg/mL]	IC90 (Septoria tritici (St); [17]) [µg/mL]	also measured
COc1ccc(F)cc1[C@H](Cn1c(=O)n(C(C)(C)C(=O)NC(C)C)c(=O)c2c(C)c(-n3nccn3)sc21)OC(C)C [Compound I-020, (R)-2-(1-(2-(5-fluoro-2-methoxyphenyl)-2-isopropoxyethyl)-5-methyl-2,4-dioxo-6-(2H-1,2,3-triazol-2-yl)-1,4-dihydrothieno[2,3-d]pyrimidin-3 (2H)-yl)-N-isopropyl-2-methylpropanamide]	B (from 50 to 69% control of wheat leaf rust)	AA (≥85% control of barley powdery mildew)	B (from 50 to 69% control of wheat fusarium head blight)	B (from 50 to 69% control of Asian soybean rust)	B (from 50 to 69% control of wheat septoria leaf blotch)	AA (≥85% control of cucumber powdery mildew)	–	–	–	–	–	–	–	–	–	IC90 (Rhizoctonia solani (Rs); ≥90% inhibition, 48 hours vs 2% DMSO control, read-out: Compound Concentration (ppm) sufficient for ≥90% inhibition of growth, Rs): 0.08 µg/mL (≈ 0.136 µM); IC90 (Botrtyis cinerea (Bc); ≥90% inhibition, 48 hours vs 2% DMSO control, read-out: Compound Concentration (ppm) sufficient for ≥90% inhibition of growth, Bc): ≥ 0.08 µg/mL; IC90 (Diplodia maydis (Dm); ≥90% inhibition, 48 hours vs 2% DMSO control, read-out: Compound Concentration (ppm) sufficient for ≥90% inhibition of growth, Dm): 0.08 µg/mL (≈ 0.136 µM); IC90 ([4]; ≥90% inhibition, 48 hours vs 2% DMSO control, read-out: Compound Concentration (ppm) sufficient for ≥90% inhibition of growth, Pc): > 50 µg/mL; IC90 ([5]; ≥90% inhibition, 48 hours vs 2% DMSO control, read-out: Compound Concentration (ppm) sufficient for ≥90% inhibition of growth, Fv): 0.4 µg/mL (≈ 0.682 µM); Barley Powdery Mildew Reduction (%) [6]: 91%; Plant Height (Fusarium graminearum [7]; Table 12): 40.53 cm; IC90 ([8]; ≥90% inhibition, 48 hours vs 2% DMSO control, read-out: Compound Concentration (ppm) sufficient for ≥90% inhibition of growth, Cg): 0.08 µg/mL (≈ 0.136 µM); IC90 ([9]; ≥90% inhibition, 48 hours vs 2% DMSO control, read-out: Compound Concentration (ppm) sufficient for ≥90% inhibition of growth, Fm): 0.08 µg/mL (≈ 0.136 µM); IC90 (Septoria tritici (St); ≥90% inhibition, 48 hours vs 2% DMSO control, read-out: Compound Concentration (ppm) sufficient for ≥90% inhibition of growth, St): ≥ 2 µg/mL
CCNC(=O)C(C)(C)n1c(=O)c2c(C)c(-n3nccn3)sc2n(C[C@H](OCCC#N)c2cc(F)ccc2OC)c1=O [Compound I-206, (R)-2-(1-(2-(2-cyanoethoxy)-2-(5-fluoro-2-methoxyphenyl)ethyl)-5-methyl-2,4-dioxo-6-(2H-1,2,3-triazol-2-yl)-1,4-dihydrothieno[2,3-d]pyrimidin-3 (2H)-yl)-N-ethyl-2-methylpropanamide]	AA (≥85% control of wheat leaf rust)	AA (≥85% control of barley powdery mildew)	B (from 50 to 69% control of wheat fusarium head blight)	AA (≥85% control of Asian soybean rust)	AA (≥85% control of wheat septoria leaf blotch)	AA (≥85% control of cucumber powdery mildew)	0.08 (≈ 0.137 µM)	0.4 (≈ 0.685 µM)	0.4 (≈ 0.685 µM)	> 50	0.4 (≈ 0.685 µM)	42.72	0.4 (≈ 0.685 µM)	0.08 (≈ 0.137 µM)	> 50	–
COc1ccc(F)cc1[C@H](Cn1c(=O)n([C@H](C)C(=O)NC(C)C)c(=O)c2c(C)c(-n3nccn3)sc21)OCC(C)(C)C#N [Compound I-253, (R)-2-(1-((R)-2-(2-cyano-2-methylpropoxy)-2-(5-fluoro-2-methoxyphenyl)ethyl)-5-methyl-2,4-dioxo-6-(2H-1,2,3-triazol-2-yl)-1,4-dihydrothieno[2,3-d]pyrimidin-3 (2H)-yl)-N-isopropylpropanamide]	AA (≥85% control of wheat leaf rust)	A (from 70% to 84% control of barley powdery mildew)	B (from 50 to 69% control of wheat fusarium head blight)	A (from 70% to 84% control of Asian soybean rust)	AA (≥85% control of wheat septoria leaf blotch)	AA (≥85% control of cucumber powdery mildew)	0.08 (≈ 0.131 µM)	0.4 (≈ 0.654 µM)	0.4 (≈ 0.654 µM)	≥ 50	0.4 (≈ 0.654 µM)	37.81	0.4 (≈ 0.654 µM)	0.08 (≈ 0.131 µM)	≥ 2	–

From patent US10941157B2, “Pesticidal compositions and uses thereof” (Gilead Apollo, LLC, priority 2015, dated 2021)
